Several values for one entry are separate records, joined by “and”; a condition that tells them apart may be missing. Equal entries are not always repeated.

One assay relates to VEGF mRNA. The experiment in a line: qRT-PCR growth factor gene expression in DP cells, VEGF. Format: cell-based, human. Conditions: for mRNA_VEGF: DP cells. From the text: Next, we investigated the downstream effects of P5 on hair growth factor genes and proteins in DP cells. […] We tested whether P5 can also increase the mRNA levels and proteins of hair growth factors in DP cells: IGF‐1, VEGF, HGF, platelet‐derived growth factor alpha (PDGFA), and fibroblast growth factor (FGF) 7, which are known to induce or maintain the anagen phase of the hair cycle (Jindo et al, [1994]; Philpott et al, [1994]; Yano et al, [2001]; Jang, [2005]; Tomita et al, [2006]; Iino et al, [2007]).
Total RNA was isolated from P5‐treated DP cells using RNAiso Plus (#9109; TaKaRa). We used the total RNA (1 µg) for cDNA synthesis using a RevertAid First Strand cDNA Synthesis Kit (Thermo Fisher) according to the manufacturer's instructions. The mRNA expression levels were quantified on a 7500 Real‐time PCR System (Thermo Fisher) using TB Green Premix Ex Taq (TaKaRa Bio): human IGF‐1, VEGF, HGF, PDGFA, FGF7, and glyceraldehyde 3‐phosphate dehydrogenase (GAPDH) (Appendix Table S2). The relative expression levels of each gene were determined by the 2^‐ΔΔCT method.
Background: In qPCR the cycle at which signal appears reflects the starting amount.

Assay [1] relates to matrix cells of human HF bulbs. Nature of the assay: IF staining Ki-67 of ex vivo cultured HF bulb. In kind it is cell-based. As to conditions: for Numbers of Ki-67-positive cells normalized to DAPI-stained cells: ex vivo cultured HF bulb, individual HFs, n = 8. From the text: We next investigated whether P5 can reproduce the effects of APN on hair growth promotion ex vivo (Won et al, [2012]) using ex vivo human HF organ culture model. […] The Ki‐67‐positive cell portion of the matrix area in the P5‐treated HFs was higher than that in the vehicle‐treated group (Fig 3E).
(§1) Paraffin‐embedded mouse cutaneous back tissue was sectioned (4 μm thickness) and stained with hematoxylin and eosin. For IF staining, human ORS cells cultured in FiTC‐P5, sectioned paraffin‐embedded human HFs (7 μm thickness), and sectioned paraffin‐embedded mouse cutaneous dorsal tissue or human skin tissue (5 μm thickness) were incubated at 4°C overnight with the following primary antibodies diluted in the diluent reagent (Invitrogen): phospho‐AMPK (#2535, 1:100; Cell Signaling), Ki‐67 (#M7240, 1:200; Dako), versican (#ab177480, 1:200; Abcam), or AdipoR1 antibody (#ab126611, 1:200; Abcam). After three washes with PBS, the slides were incubated with the secondary Alexa Fluor 488‐labeled anti‐mouse or rabbit IgG antibody (#ab150077, #ab150113, 1:200; Invitrogen), or Alexa Fluor 594‐labeled anti‐rabbit IgG antibody (#a11012, 1:200; Invitrogen) at 25°C for 1 h. Nuclei were counterstained with 4′,6‐diamidino‐2‐phenylindole (DAPI; #D1306, 1:1,000; Invitrogen). Microscopic observations were performed with a Nikon Eclipse Ci‐L microscope (Nikon). IF intensity was observed and recorded with a Nikon Eclipse Ni‐E fluorescence microscope (Nikon).

Another assay has as its system C57BL/6 (WT) mice. Nature of the assay: Mouse hair cycle modulation, histology and anagen induction score, WT mice. In kind it is in vivo.
Text: First, we topically applied P5 and minoxidil as a positive control (Messenger & Rundegren, [2004]) on wildtype (WT) mouse. […] Overall, the hair cycle score was higher in the P5‐treated mice than vehicle‐treated mice (Fig 4B). […] Collectively, P5 induces anagen hair cycle in vivo.
as §1
For the hair cycle modulation experiment, Adipoq ^−/− (stock #008195; JAX) (Ma et al, [2002]), Adipor1 ^−/− (Yamauchi et al, [2007]; Okada‐Iwabu et al, [2013]), or C57BL/6 (KOATECH) female mice was used (Müller‐Röver et al, [2001]). They were housed (up to four animals per cage; 23 ± 2°C, 8:00–20:00, 12 h/12 h light/dark cycle). Mice were fed a standard chow diet and provided food and water ad libitum. Mice were randomly allocated and shaved dorsally at 7.5 weeks of age. Only mice in telogen were included for the further experiments (Müller‐Röver et al, [2001]). From 8 weeks of age, the shaved dorsal area was treated with vehicle control (ethanol and polyethylene glycol, 30% and 70% v/v), P5 (0.1 mM), or minoxidil (3%) every day. The mouse hair growth score (a value from 0 to 100 based on the skin pigmentation and hair shaft density) was monitored and documented at designated days with the experimenters being blind to the conditions, following a previous study (Chai et al, [2019]). A higher score corresponds to a transition from telogen to anagen. On day 35, we obtained dorsal cutaneous tissue for histological analysis: anagen induction scores (calculated using an assigned arbitrary score; telogen = 1, anagen I–VI = 2–7) (Müller‐Röver et al, [2001]).

The subject of a further assay is Adipoq−/− mice. Nature of the assay: Mouse hair cycle modulation, histology and anagen induction score, Adipoq−/− mice. Format: in vivo. Conditions: Unpaired t-test. From the text: We also evaluated P5 effect in Adipoq ^−/− mouse (Ma et al, [2002]). […] Skin pigmentation was prominent in P5‐treated Adipoq ^−/− mice at day 14 (Fig 4E). […] At day 35, unlike vehicle‐treated Adipoq ^−/− mice showing little pigmentation, P5‐treated Adipoq ^−/− mice manifested hairs with pigmentation (Fig 4E). […] The DP cells in P5‐treated Adipoq ^−/− mice expressed versican (Fig 4G).
Paraffin‐embedded mouse cutaneous back tissue was sectioned (4 μm thickness) and stained with hematoxylin and eosin. […] IF intensity was observed and recorded with a Nikon Eclipse Ni‐E fluorescence microscope (Nikon).
For the hair cycle modulation experiment, Adipoq ^−/− (stock #008195; JAX) (Ma et al, [2002]), Adipor1 ^−/− (Yamauchi et al, [2007]; Okada‐Iwabu et al, [2013]), or C57BL/6 (KOATECH) female mice was used (Müller‐Röver et al, [2001]). […] The mouse hair growth score (a value from 0 to 100 based on the skin pigmentation and hair shaft density) was monitored and documented at designated days with the experimenters being blind to the conditions, following a previous study (Chai et al, [2019]). […] On day 35, we obtained dorsal cutaneous tissue for histological analysis: anagen induction scores (calculated using an assigned arbitrary score; telogen = 1, anagen I–VI = 2–7) (Müller‐Röver et al, [2001]).

The subject of the next assay is Adipor1−/− mice. Nature of the assay: Mouse hair cycle modulation, hair cycle score, Adipor1−/− mice. In kind it is in vivo. Conditions: n = 5 mice/group, 35 days. From the text:
To test whether the effect of P5 is mediated through AdipoR1 in vivo, we used Adipor1 ^−/− mice (Yamauchi et al, [2007]; Okada‐Iwabu et al, [2013]). […] Consistently, the anagen induction effects of P5 was abolished in the Adipor1 ^−/− mice (Fig 4I and J), in contrast to in WT mouse (Appendix Fig S2). […] Taken together, topical P5 treatment can accelerate hair growth through AdipoR1 in vivo.
For the hair cycle modulation experiment, Adipoq ^−/− (stock #008195; JAX) (Ma et al, [2002]), Adipor1 ^−/− (Yamauchi et al, [2007]; Okada‐Iwabu et al, [2013]), or C57BL/6 (KOATECH) female mice was used (Müller‐Röver et al, [2001]). They were housed (up to four animals per cage; 23 ± 2°C, 8:00–20:00, 12 h/12 h light/dark cycle). Mice were fed a standard chow diet and provided food and water ad libitum. Mice were randomly allocated and shaved dorsally at 7.5 weeks of age. […] The mouse hair growth score (a value from 0 to 100 based on the skin pigmentation and hair shaft density) was monitored and documented at designated days with the experimenters being blind to the conditions, following a previous study (Chai et al, [2019]). […] On day 35, we obtained dorsal cutaneous tissue for histological analysis: anagen induction scores (calculated using an assigned arbitrary score; telogen = 1, anagen I–VI = 2–7) (Müller‐Röver et al, [2001]). […]

Turning to “GLYYF [P5, GST-fused (GST-P5) in pulldown assays]”, the mRNA_VEGF was 1.194 with VEGF mRNA (P5 5μM, relative to Control = 1, replicate 1); 1.24 in the assay with VEGF mRNA (P5 5μM, relative to Control = 1, replicate 2); 0.9876 with VEGF mRNA (P5 5μM, relative to Control = 1, replicate 3); 0.849 in the assay on VEGF mRNA (P5 5μM, relative to Control = 1, replicate 4); 2.123 in the assay on VEGF mRNA (P5 25μM, relative to Control = 1, replicate 1); 1.672 in the assay with VEGF mRNA (P5 25μM, relative to Control = 1, replicate 2). The mRNA_VEGF was found to be 2.456 with VEGF mRNA (P5 25μM, relative to Control = 1, replicate 3) and 1.575 with VEGF mRNA (P5 25μM, relative to Control = 1, replicate 4). Besides, the “VEGF mRNA expression” value in the assay on VEGF mRNA (P5-treated DP cells, n = 4) is recorded as “significantly increased”. The “Numbers of Ki-67-positive cells normalized to DAPI-stained cells” value in assay [1] (P5 5μM) is 0.25 and 0.29 and 0.26 and 0.24 and 0.3 and 0.22 and 0.21; in assay [1] (P5 25μM), 0.29 and 0.28 and 0.31 and 0.37 and 0.42 and 0.41 and 0.43 and 0.33. Besides, in assay [1] (ex vivo cultured human HFs, vs vehicle), the “Ki-67 in matrix cells of HF bulbs” value is recorded as “increased significantly”. Moreover, the “Histological examination of HFs” value with C57BL/6 (WT) mice (H&E) was “anagen HFs were noticeable”. The “Anagen induction scores vs vehicle” value with C57BL/6 (WT) mice (One-way ANOVA with Tukey's test) was “significantly higher”. The “Anagen induction score vs vehicle” value with Adipoq−/− mice is on record as “significantly higher”. Further, in the assay on Adipor1−/− mice, the “Anagen induction effects / hair cycle scores vs vehicle” value is listed as “abolished”.

Values taken from PMC8495455, “Discovery of a transdermally deliverable pentapeptide for activating AdipoR1 to promote hair growth” (EMBO Molecular Medicine, 2021).
